What was measured:
CDK2 (human) [1] = biological target: CDK2 (human) (UniProt P24941); assay: Enzyme Assay
CDK2 (human) [2] = biological target: CDK2 (human) (UniProt P24941); assay: Enzyme Assay; remark: listed apart in the source

Q: `CN(C)C1CCN(c2ccc(Nc3nc(N)c(C(=O)c4ccc([N+](=O)[O-])cc4)s3)cc2)CC1` was tested. Which IC50 (CDK2 (human) [1]) did it give?
A: 10 µM

Q: What about the IC50 (CDK2 (human) [2]) of the same compound?
A: 10 µM

Q: Which results are given for `Nc1nc(Nc2ccc(N3CCC(N4CCCC(O)C4)CC3)cc2)sc1C(=O)c1ccc(Cl)cc1` (stereo not given)?
A: IC50 (CDK2 (human) [1]): 10 µM; IC50 (CDK2 (human) [2]): 10 µM

Q: For `CCNC1CCN(c2ccc(Nc3nc(N)c(C(=O)c4cccc(F)c4)s3)cc2)CC1`, which IC50 (CDK2 (human) [1]) is on record?
A: 1.01 µM

Q: And the IC50 (CDK2 (human) [2])?
A: 1.01 µM

Q: Which IC50 (CDK2 (human) [1]) does the source give for `Nc1nc(Nc2ccc(N3CCC(N4CCCC(O)C4)CC3)cc2)sc1C(=O)c1ccc2c(c1)OCCO2` (stereo not given) here?
A: 1.45 µM

Q: What about the IC50 (CDK2 (human) [2]) of the same compound?
A: 1.45 µM

Q: Which results are given for `NC(=O)c1cc(C(=O)c2sc(Nc3ccc(N4CCC(N5CCCC5)CC4)cc3)nc2N)ccc1O`?
A: IC50 (CDK2 (human) [1]): 10 µM; IC50 (CDK2 (human) [2]): 10 µM
